Reference: PMC7865627, “Small Molecule-Based Prodrug Targeting Prostate Specific Membrane Antigen for the Treatment of Prostate Cancer” (Cancers, 2021)
Read-outs that look alike come from different tables or passages of the source. *1 amine or outer side, *2 acyl side, *3 side chain or, on linkers, in order; H or OH if unused. Where a SMILES comes first, the peptide text is derived from it. Bridges are numbered along the chain shown (N, C = ends). Roman numbers before positions name the chains, in order. [ ]: non-standard residue; d: D form. The star is where a group is joined. X3 = CN1/C(=C/C=C/C=C/C2=[N+](CCCCCC(=O)*)c3ccc4ccccc4c3C2(C)C)C(C)(C)c2c1ccc1ccccc21; Dolaproine = CO[C@@H]([C@@H]1CCCN1)[C@@H](C)C(=O)O; Dil = CC[C@H](C)[C@H](NC)[C@@H](CC(=O)O)OC; X4 = O=C1CC([*:2])C(=O)N1CCCCCC(=O)[*:1]; γGlu = O=C(O)[C@H](CCC(=O)[*:2])N[*:1]; PABC = O=C(OCc1ccc(N[*:1])cc1)[*:2]; X2 = C[C@@H](N*)[C@@H](O)c1ccccc1; Trx = NC[C@H]1CC[C@H](C(=O)O)CC1; Cit = NC(=O)NCCC[C@H](N)C(=O)O; NMeV = CN[C@H](C(=O)O)C(C)C; CO = O=C([*:1])[*:2]; Ahx = NCCCCCC(=O)O

Assays:
[1] = target: PSMA receptor; conditions: cited from earlier work
Excerpt: Prostate-specific membrane antigen (PSMA) is a type II transmembrane protein that is overexpressed (by 100–1000 fold) by virtually all prostate cancers. PSMA expression is further increased in poorly differentiated, metastatic, hormone-refractory carcinomas and in cancer cells from castration-resistant prostate cancer patients. Increased PSMA expression is correlated with the risk of early prostate cancer recurrence after radical prostatectomy. […] BIND014 increased intr ...

[2] = tested on: α-tubulin in PC3flu cells; assay: Immunofluorescence analysis of alpha-tubulin, PC3flu; format: cell-based, human; conditions: 5 nM, 24 h, Alexa Fluor 488 α-tubulin antibody
Description: (§1) Cells were washed and fixed with 4% paraformaldehyde for 10 min, permeabilized with 0.1% Triton™ X-100 for 10 min, and blocked with 1% BSA for 1 h at room temperature. Alpha-tubulin (B5-1-2) Alexa Fluor 488 Mouse Monoclonal Antibody (Invitrogen) was then added at 2 µg/mL in 0.1% BSA and incubated for 3 h at room temperature. Cells were counterstained with DAPI, mounted with Fluor-Mount aqueous mounting solution, and observed under Leica DM4000B fluorescence microscopy at 40×.

[3] = target: T1, human liver cathepsin B (Homo sapiens, UniProt P07858); assay: Enzymatic cleavage by cathepsin B, HPLC analysis; format: in vitro ADME; conditions: activated human liver cathepsin B, 2 μM conjugate, 37 °C, triplicate
T1 construct: purchased Anthens Research and Technology, Anthens, AL, USA (so in the source); host or cells: human liver (tissue-derived enzyme)
Description: (§2) Cathepsin is a prevalent protease that PSMA internalized ligands will encounter as they enter into late endosomes/lysosomes. To investigate if PSMA-targeted drug conjugates were cleavable by cathepsin B, the two conjugates were incubated with or without cathepsin protease and chromatographed by high performance liquid chromatography (HPLC).
(§3) At different time intervals, 40 μL of the solution was taken out into tubes loaded with 1 μL of 1 mM E64 protease inhibitor. […] Studies were performed in triplicate.

[4] = tested on: PSMA-negative PC3flu cells; assay: In vitro cellular uptake (confocal fluorescence), PC3flu; format: cell-based, human; conditions: 50 nM conjugate, 4 h, 37 °C, confocal microscopy
Description: Figure 2 In vitro fluorescence studies of PSMA-1-MMAE-Cy5.5 conjugates. In vitro cellular uptake results of PSMA-targeted drug conjugates. Cells were incubated with 50 nM of drug conjugates for 4 h. Nuclei were stained by DAPI and are false colored blue, lysosomes were detected by LysoOrange and are false colored green, and drug conjugates are false colored red. Selective uptake was observed only in PC3pip cells and the conjugates were mainly located in lysosomes. Specificity of drug conjugates for PSMA binding was evaluated by including 1 mM of unlabeled PSMA-1 ligand during incubations. […] Images are taken at 40×. Representative images are shown from three independent experiments.
PC3pip and PC3flu cells were seeded in µ-Slide 8-Well Chamber Slide (ibidi GmbH, Munich, Germany) at 2000 cells/well. […] Cells were washed with PBS and stained with DAPI and LysoOrange (Abcam Inc., Cambridge, UK) for 30 min at 37 °C and 5% CO2, after which they were washed again with PBS and fresh medium added. Selectivity was determined by including 20-fold excess of the PSMA-1 ligand. The uptake and localization of the drug conjugates were visualized under a confocal microscope (Leica Biosystem, Wetzlar, Germany) at 40×.

[5] = tested on: heterotopic PC3pip and PC3flu tumors; assay: In vivo NIR fluorescence imaging, mice bearing PC3pip and PC3flu tumors; parameters: species or system mouse; conditions: 40 nmol/kg i.v., 24-h post-injection, n = 5
Description: Under guidelines of the animal care and use committee at Case Western Reserve University (IACUC#150033) 6–8-week old male Balb/c athymic nude mice were implanted subcutaneously with 1 × 10^6 of PC3flu and PC3pip in 100 μL of matrigel on the left and right flank, respectively. […] Fluorescence imaging was performed using the Maestro In Vivo Imaging system (Perkin-Elmer Inc., Waltham, MA, USA). At 72-h post injection, mice were euthanized, tumor and organs were extracted for ex vivo imaging. Tumors were snap-frozen in OCT, cut into 10 μm thick sections and fixed on slides. The fluorescence signal from cy5.5 was observed under a Leica DM4000B microscope.

[6] = tested on: heterotopic PC3pip tumors; assay: Heterotopic PC3pip tumor survival study; format: in vivo; conditions: 160 nmol/kg, tumors extracted on day 4, compared with PSMA-1-McMMAE-Cy5.5
[7] = tested on: heterotopic PC3pip tumors; assay: Heterotopic PC3pip tumor survival study; format: in vivo
Description: Male athymic nude mice were implanted subcutaneously with 1 × 10^6 of PC3pip cells 100 μL of matrigel. When tumor size reached approximately 100 mm^3 (tumor volume = Length × width^2/2), mice received drugs through tail vein injection every 4 days with a total of five doses. Mice were treated every 4 days with a total of five doses. Animals were weighed and tumor size measured every other day for 90 days. Cures were defined as no tumor present at end of the 90-day study. When tumors became too large or animals were moribund they were euthanized. Five mice were used in each group.

[8] = Stability on incubation in PBS (without cathepsin), HPLC; format: in vitro ADME; conditions: incubation with PBS without cathepsin, triplicate
Description: as §2, §3

[9] = tested on: α-tubulin in PC3pip cells; assay: Immunofluorescence analysis of alpha-tubulin, PC3pip; format: cell-based, human; conditions: 5 nM, 24 h, Alexa Fluor 488 α-tubulin antibody
Description: as §1

[10] = In vitro cytotoxicity assay (CCK-8), PC3pip; format: cell-based, human
Description: (§4) Cells (1000/well) were seeded in 96-well culture plates the day before treatment.

[11] = tested on: tumor-free athymic nude mice; assay: Maximum tolerated dose, single i.v. dose; format: in vivo, mouse; conditions: male nude mice, 3 per dose group, 14 days, 20% body weight loss or overt toxicity as end point
Excerpt: Mice were monitored daily for 14 days.

[12] = tested on: PSMA-negative PC3flu cells; assay: In vitro cytotoxicity assay (CCK-8), PC3flu; format: cell-based, human; conditions: 72 h incubation, CCK-8; mean ± SD
Description: as §4

[13] = tested on: PSMA-positive PC3pip cells; assay: In vitro cytotoxicity assay (CCK-8), PC3pip; format: cell-based, human
Description: as §4

[14] = 160 nmol/kg i.v. every 4 days, five doses, n = 5
[15] = 72 h incubation, CCK-8, mean ± SD

Structure (SMILES): NCCCC[C@H](NC(=O)N[C@@H](CCC(=O)O)C(=O)O)C(=O)O [ZJ24, (S)-2-(3-((S)-5-amino-1-carboxypentyl)ureido) pentanedioic acid]
- Ki ([1]; read-out: Ki to PSMA (ZJ24)): 0.3 nM

Structure (SMILES): CC[C@H](C)[C@@H]([C@@H](CC(=O)N1CCC[C@H]1[C@H](OC)[C@@H](C)C(=O)N[C@H](C)[C@@H](O)c1ccccc1)OC)N(C)C(=O)[C@@H](NC(=O)[C@H](C(C)C)N(C)C(=O)OCc1ccc(NC(=O)[C@H](CCCNC(N)=O)NC(=O)[C@@H](NC(=O)CCCCCN2C(=O)CC(SC[C@H](NC(=O)[C@@H](CCC(=O)O)NC(=O)[C@@H](CCC(=O)O)NC(=O)[C@@H](CCC(=O)O)NC(=O)CCCCCNC(=O)[C@H]3CC[C@H](CNC(=O)CC[C@H](NC(=O)N[C@@H](CCC(=O)O)C(=O)O)C(=O)O)CC3)C(=O)NCCCCCC(=O)N[C@@H](CCCCNC(=O)CCCCC[N+]3=C(/C=C/C=C/C=C4/N(C)c5ccc6ccccc6c5C4(C)C)C(C)(C)c4c3ccc3ccccc43)C(N)=O)C2=O)C(C)C)cc1)C(C)C (stereo partly drawn) [PSMA-1-VcMMAE-Cy5.5] (I: V[Cit][PABC][NMeV]V[Dil][Dolaproine]-X2 / II: {Glu-CO-γGlu-Trx-Ahx}-[dE][dE][dE]C[Ahx]K(X3)-NH2; linker I:N-II:4 via X4)
- disruption of α-tubulin in PC3flu cells (in words) [2]: no obvious changes in α-tubulin structure
- cleavage by cathepsin B (in words) [3]: degraded rapidly
- half-life in the presence of cathepsin [3]: 19.8 min
- cellular uptake, fluorescence in PC3flu cells (in words) [4]: no fluorescence signal was observed
- uptake in PSMA-negative PC3flu tumors (in words) [5]: little to no detectable uptake
- apoptosis, caspase 3 staining of tumors (in words) [6]: significantly more apoptosis
- cures (tumor-free mice at end of 90-day study), 160 nmol/kg [7, 14]: 3/5 and three out of five
- tumor growth (in words), 160 nmol/kg [7, 14]: effectively inhibited tumor growth
- cures, lower dose group of Figure S4B ([7]; dose group not printed beside the label, i.v. every 4 days, five doses, n = 5): 1/5
- stability in PBS (in words) [8]: stable
- disruption of α-tubulin in PC3pip cells (in words) [9]: selective tubulin disruption
- EC50 ([10]; 72 h, CCK-8, in the presence of protease inhibitor E64 (50 μM given for the Cy5.5 conjugates), read-out: EC50, cytotoxicity to PC3pip cells + E64): 3.66 nM
- EC50 ([10]; 72 h incubation, CCK-8, mean ± SD, read-out: EC50, cytotoxicity to PC3pip cells): 0.84 nM

Structure (SMILES): CC[C@H](C)[C@@H]([C@@H](CC(=O)N1CCC[C@H]1[C@H](OC)[C@@H](C)C(=O)N[C@H](C)[C@@H](O)c1ccccc1)OC)N(C)C(=O)[C@@H](NC(=O)[C@@H](NC)C(C)C)C(C)C [MMAE, monomethyl auristatin E, reference compound] (H-[NMeV]V[Dil][Dolaproine]-X2)
- maximum tolerated dose (MTD) [11]: 700 nmol/kg
- EC50 [12]: 0.21 ± 0.04 nM
- tumor growth (in words), 160 nmol/kg [7, 14]: did not show any antitumor activity
- therapeutic index ([7]; MTD/effective dose): 1
- lowest dose to effectively inhibit tumor growth ([7]; i.v. every 4 days, five doses, tumor growth inhibited for 30 days, n = 5): 700 nmol/kg
- EC50 [13, 15]: 0.24 ± 0.05 nM
- selectivity, differential cytotoxicity ratio between PC3pip and PC3flu cells ([13]; more potent for PC3pip than PC3flu): no selectivity

Structure (SMILES): O=C(O)CCC(NC(=O)NC(CCC(=O)O)C(=O)O)C(=O)O (stereo not drawn) [DUPA, 2-(3-(1,3-dicarboxypropyl)-ureido) pentanedioic acid]
- Ki ([1]; read-out: Ki to PSMA receptor (DUPA)): 8 nM

Structure (SMILES): CC[C@H](C)[C@@H]([C@@H](CC(=O)N1CCC[C@H]1[C@H](OC)[C@@H](C)C(=O)N[C@H](C)[C@@H](O)c1ccccc1)OC)N(C)C(=O)[C@@H](NC(=O)[C@H](C(C)C)N(C)C(=O)CCCCCN1C(=O)CC(SC[C@H](NC(=O)[C@@H](CCC(=O)O)NC(=O)[C@@H](CCC(=O)O)NC(=O)[C@@H](CCC(=O)O)NC(=O)CCCCCNC(=O)[C@H]2CC[C@H](CNC(=O)CC[C@H](NC(=O)N[C@@H](CCC(=O)O)C(=O)O)C(=O)O)CC2)C(=O)NCCCCCC(=O)N[C@@H](CCCCNC(=O)CCCCC[N+]2=C(/C=C/C=C/C=C3/N(C)c4ccc5ccccc5c4C3(C)C)C(C)(C)c3c2ccc2ccccc32)C(N)=O)C1=O)C(C)C (stereo partly drawn) [PSMA-1-McMMAE-Cy5.5]
- disruption of α-tubulin in PC3flu cells (in words) [2]: no apparent disruption of tubulin
- cleavage by cathepsin B (in words) [3]: remained intact
- EC50, cytotoxicity to PC3flu cells [12]: no EC50 values could be obtained
- cellular uptake, fluorescence in PC3flu cells (in words) [4]: no fluorescence signal was observed
- uptake in PSMA-negative PC3flu tumors (in words) [5]: little to no detectable uptake
- stability in PBS (in words) [8]: stable
- disruption of α-tubulin in PC3pip cells (in words) [9]: no apparent disruption of tubulin
- EC50, cytotoxicity to PC3pip cells [13, 15]: no EC50 values could be obtained
